Measured values published in PubChem BioAssay (NCI).
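Cultured in 96-well plates, cells were exposed to test compound for 48 hours across five concentrations. GI50 marks 50% less growth. TGI: total growth inhibition.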

Legend:
Experiment in all cases: NCI tumour cell line growth inhibition, 48 h
[1] = test system: 786-0 renal
[2] = test system: A498 renal
[3] = test system: A549 NSCLC
[4] = test system: ACHN renal
[5] = test system: BT-549 breast
[6] = test system: CAKI-1 renal
[7] = test system: CCRF-CEM leukemia
[8] = test system: COLO 205 colon
[9] = test system: HCT-116 colon
[10] = test system: HCT-15 colon
[11] = test system: HL-60(TB) leukemia
[12] = test system: HOP-62 NSCLC
[13] = test system: HOP-92 NSCLC
[14] = test system: HS 578T breast
[15] = test system: HT29 colon
[16] = test system: IGROV1 ovarian
[17] = test system: K-562 leukemia
[18] = test system: LOX IMVI melanoma
[19] = test system: M14 melanoma
[20] = test system: MALME-3M melanoma
[21] = test system: MCF7 breast
[22] = test system: MDA-MB-231 breast
[23] = test system: MDA-MB-435
[24] = test system: MOLT-4 leukemia
[25] = test system: NCI-H226 lung
[26] = test system: NCI-H23 lung
[27] = test system: NCI-H460 lung
[28] = test system: NCI-H522 lung
[29] = test system: NCI/ADR-RES ovarian
[30] = test system: OVCAR-4 ovarian
[31] = test system: OVCAR-5 ovarian
[32] = test system: OVCAR-8 ovarian
[33] = test system: PC-3 prostate
[34] = test system: RPMI-8226 leukemia
[35] = test system: RXF 393 renal
[36] = test system: SF-295 CNS
[37] = test system: SF-539 CNS
[38] = test system: SK-MEL-2 melanoma
[39] = test system: SK-MEL-28 melanoma
[40] = test system: SK-MEL-5 melanoma
[41] = test system: SK-OV-3 ovarian
[42] = test system: SN12C renal
[43] = test system: SNB-19 CNS
[44] = test system: SNB-75 CNS
[45] = test system: SW-620 colon
[46] = test system: T-47D breast
[47] = test system: TK-10 renal
[48] = test system: U251 CNS
[49] = test system: UACC-257 melanoma
[50] = test system: UACC-62 melanoma
[51] = test system: UO-31 renal
[52] = test system: DU-145 prostate
[53] = test system: EKVX NSCLC
[54] = test system: HCC-2998 colon
[55] = test system: KM12 colon
[56] = test system: OVCAR-3 ovarian
[57] = test system: SF-268 CNS
[58] = test system: SR leukemia

CCN(CC)CCOc1ccc(-c2nc3cc(Cl)ccc3s2)cc1
GI50 [1]: 1680 nM
TGI [1]: 3140 nM
GI50 [2]: 1660 nM
TGI [2]: 3830 nM
GI50 [3]: 1750 nM
TGI [3]: 3470 nM
GI50 [4]: 1580 nM
TGI [4]: 2940 nM
GI50 [5]: 1830 nM
TGI [5]: 5730 nM
GI50 [6]: 1470 nM
TGI [6]: 2840 nM
GI50 [7]: 565 nM
TGI [7]: 3140 nM
GI50 [8]: 1450 nM
TGI [8]: 2760 nM
GI50 [9]: 1250 nM
TGI [9]: 2500 nM
GI50 [10]: 1190 nM
TGI [10]: 2420 nM
GI50 [11]: 1560 nM
TGI [11]: 5120 nM
GI50 [12]: 1740 nM
TGI [12]: 3250 nM
GI50 [13]: 1220 nM
TGI [13]: 4200 nM
GI50 [14]: 1620 nM
TGI [14]: 3720 nM
GI50 [15]: 600 nM
TGI [15]: 1840 nM
GI50 [16]: 1850 nM
TGI [16]: 3610 nM
GI50 [17]: 1260 nM
TGI [17]: > 100000 nM
GI50 [18]: 1390 nM
TGI [18]: 2680 nM
GI50 [19]: 1730 nM
TGI [19]: 3210 nM
GI50 [20]: 1450 nM
TGI [20]: 2800 nM
GI50 [21]: 1450 nM
TGI [21]: 2830 nM
GI50 [22]: 1470 nM
TGI [22]: 2920 nM
GI50 [23]: 1650 nM
TGI [23]: 3180 nM
GI50 [24]: 2240 nM
TGI [24]: 10900 nM
GI50 [25]: 2020 nM
TGI [25]: 4430 nM
GI50 [26]: 1640 nM
TGI [26]: 3320 nM
GI50 [27]: 1590 nM
TGI [27]: 2930 nM
GI50 [28]: 1800 nM
TGI [28]: 3530 nM
GI50 [29]: 1970 nM
TGI [29]: 3870 nM
GI50 [30]: 1650 nM
TGI [30]: 7210 nM
GI50 [31]: 1600 nM
TGI [31]: 3090 nM
GI50 [32]: 1990 nM
TGI [32]: 4020 nM
GI50 [33]: 1740 nM
TGI [33]: 4610 nM
GI50 [34]: 715 nM
TGI [34]: 3340 nM
GI50 [35]: 1010 nM
TGI [35]: 2770 nM
GI50 [36]: 1380 nM
TGI [36]: 2770 nM
GI50 [37]: 1600 nM
TGI [37]: 2940 nM
GI50 [38]: 1890 nM
TGI [38]: 3590 nM
GI50 [39]: 1990 nM
TGI [39]: 3940 nM
GI50 [40]: 1540 nM
TGI [40]: 2880 nM
GI50 [41]: 1770 nM
TGI [41]: 3840 nM
GI50 [42]: 2040 nM
TGI [42]: 4790 nM
GI50 [43]: 2260 nM
TGI [43]: 5360 nM
GI50 [44]: 1210 nM
TGI [44]: 2650 nM
GI50 [45]: 1530 nM
TGI [45]: 2930 nM
GI50 [46]: 1500 nM
TGI [46]: 4110 nM
GI50 [47]: 1310 nM
TGI [47]: 2610 nM
GI50 [48]: 1580 nM
TGI [48]: 2990 nM
GI50 [49]: 1780 nM
TGI [49]: 3620 nM
GI50 [50]: 1780 nM
TGI [50]: 3330 nM
GI50 [51]: 1660 nM
TGI [51]: 3370 nM

COc1ccc(/C=C(/C(=O)N2CCN(c3ccccc3)CC2)c2cc(OC)c(OC)c(OC)c2)cc1O
GI50 [1]: 4100 nM
TGI [1]: > 100000 nM
GI50 [2]: 211 nM
TGI [2]: 1920 nM
GI50 [3]: 764 nM
TGI [3]: > 100000 nM
GI50 [4]: 457 nM
TGI [4]: > 100000 nM
GI50 [5]: 391 nM
TGI [5]: 98500 nM
GI50 [7]: 355 nM
TGI [7]: > 100000 nM
GI50 [8]: 3890 nM
TGI [8]: 22100 nM
GI50 [52]: 451 nM
TGI [52]: > 100000 nM
GI50 [53]: 631 nM
TGI [53]: > 100000 nM
GI50 [54]: 499 nM
TGI [54]: > 100000 nM
GI50 [9]: 370 nM
TGI [9]: > 100000 nM
GI50 [10]: 341 nM
TGI [10]: > 100000 nM
GI50 [11]: 239 nM
TGI [11]: 575 nM
GI50 [12]: 550 nM
TGI [12]: > 100000 nM
GI50 [13]: 22000 nM
TGI [13]: > 100000 nM
GI50 [14]: 712 nM
TGI [14]: > 100000 nM
GI50 [15]: 5000 nM
TGI [15]: 38500 nM
GI50 [16]: 519 nM
TGI [16]: > 100000 nM
GI50 [17]: 296 nM
TGI [17]: > 100000 nM
GI50 [55]: 414 nM
TGI [55]: > 100000 nM
GI50 [18]: 398 nM
TGI [18]: > 100000 nM
GI50 [19]: 315 nM
TGI [19]: 24000 nM
GI50 [20]: 24700 nM
TGI [20]: > 100000 nM
GI50 [21]: 307 nM
TGI [21]: > 100000 nM
GI50 [22]: 378 nM
TGI [22]: 50900 nM
GI50 [23]: 150 nM
TGI [23]: 514 nM
GI50 [24]: 368 nM
TGI [24]: > 100000 nM
GI50 [25]: 60900 nM
TGI [25]: > 100000 nM
GI50 [26]: 938 nM
TGI [26]: > 100000 nM
GI50 [27]: 374 nM
TGI [27]: > 100000 nM
GI50 [28]: 128 nM
TGI [28]: 594 nM
GI50 [29]: 676 nM
TGI [29]: > 100000 nM
GI50 [56]: 322 nM
TGI [56]: 6760 nM
GI50 [30]: 2700 nM
TGI [30]: > 100000 nM
GI50 [31]: 678 nM
TGI [31]: > 100000 nM
GI50 [32]: 419 nM
TGI [32]: > 100000 nM
GI50 [33]: 580 nM
TGI [33]: > 100000 nM
GI50 [34]: 374 nM
TGI [34]: 21400 nM
GI50 [57]: 543 nM
TGI [57]: > 100000 nM
GI50 [36]: 808 nM
TGI [36]: > 100000 nM
GI50 [37]: 205 nM
TGI [37]: 708 nM
GI50 [38]: 387 nM
TGI [38]: 86500 nM
GI50 [39]: 671 nM
TGI [39]: > 100000 nM
GI50 [40]: 361 nM
TGI [40]: 11800 nM
GI50 [41]: 586 nM
TGI [41]: > 100000 nM
GI50 [42]: 564 nM
TGI [42]: > 100000 nM
GI50 [43]: 481 nM
TGI [43]: > 100000 nM
GI50 [44]: 293 nM
TGI [44]: > 100000 nM
GI50 [58]: 381 nM
TGI [58]: 58400 nM
GI50 [45]: 468 nM
TGI [45]: > 100000 nM
GI50 [46]: 51300 nM
TGI [46]: > 100000 nM
GI50 [47]: 23400 nM
TGI [47]: > 100000 nM
GI50 [48]: 445 nM
TGI [48]: > 100000 nM
GI50 [49]: 30600 nM
TGI [49]: > 100000 nM
GI50 [50]: 332 nM
TGI [50]: > 100000 nM
TGI [51]: 90800 nM
